Values after ≈ are worked out from the molar mass of the structure shown.
Assays:
E. faecalis = test: Broth microdilution MIC (Example 11); conditions: Enterococcus faecalis, VRE, VRE Lev^R Cip^R Ery^R
[1] = test system: Staphylococcus aureus (MRSA); test: Broth microdilution MIC (Example 11)
S. pyogenes = test: Broth microdilution MIC (Example 11); conditions: Streptococcus pyogenes
S. agalactiae = test: Broth microdilution MIC (Example 11); conditions: Streptococcus agalactiae
S. pneumoniae = test: Broth microdilution MIC (Example 11); conditions: Streptococcus pneumoniae
[2] = test system: vancomycin-intermediate Staphylococcus aureus (VISA); test: Broth microdilution MIC (Example 12); conditions: Staphylococcus aureus, NRS13 / VISA, read-out: MIC values
[3] = MRSA, S. aureus MMX 6311, MRSA Lev^R Cip^R CC^R Ery^R Ox^R
[4] = S. agalactiae MMX 3741, ERY^R CC^R
[5] = S. agalactiae MMX 3743, ERY^R CC^R
[6] = S. agalactiae MMX 4077, ERY^R CC^R
[7] = S. agalactiae MMX 4079, ERY^R CC^R Pen^R MEM^R
[8] = S. agalactiae MMX 4086, ERY^R CC^R
[9] = ATCC29213|MRSA|MSSA, S. aureus MMX 101 (ATCC 29213), QC, MSSA
[10] = MRSA, S. aureus MMX 5373, MRSA Lev^R Cip^R CC^R Ery^R Ox^R
[11] = MRSA, S. aureus MMX 9203, MRSA Lev^R Cip^R Ery^R Ox^R
[12] = MRSA, S. aureus MMX 9204, MRSA Lev^R Cip^R Ery^R Ox^R
[13] = MRSA, S. aureus MMX 9205, MRSA Lev^R Cip^R CC^R Ery^R Ox^R
[14] = ATCC49619, S. pneumoniae MMX 6837 (ATCC 49619), QC
[15] = S. pneumoniae MMX 880, Lev^R SXT^R CC^R Ery^R Pen^R
[16] = S. pneumoniae MMX 937, Mem^R SXT^R CC^R Ery^R Pen^R
[17] = S. pneumoniae MMX 3959, CC^R Ery^R
[18] = S. pneumoniae MMX 5440, Mem^R SXT^R CC^R Ery^R Pen^R
[19] = S. pneumoniae MMX 5445, Mem^R SXT^R CC^R Ery^R Pen^R
[20] = S. pneumoniae MMX 8133, Mem^R SXT^R CC^R Ery^R Pen^R

Q: Which results are given for Cc1onc(-c2ccccc2)c1C(=O)N[C@@H]1C(=O)N2[C@@H]1SC(C)(C)[C@@H]2C(=O)O [Oxacillin]?
A: MIC (E. faecalis; E. faecalis MMX 8962): 16 µg/mL (≈ 39.9 µM); MIC [1, 3]: 32 µg/mL (≈ 79.7 µM)

Q: How did the MIC (E. faecalis; E. faecalis MMX 8960) turn out when CC[C@H]1OC(=O)[C@H](C)[C@@H](O[C@H]2C[C@@](C)(OC)[C@@H](O)[C@H](C)O2)[C@H](C)[C@@H](O[C@@H]2O[C@H](C)C[C@H](N(C)C)[C@H]2O)[C@](C)(O)C[C@@H](C)C(=O)[C@H](C)[C@@H](O)[C@]1(C)O [Erythromycin] was run?
A: > 64 µg/mL

Q: And the MIC (E. faecalis; E. faecalis MMX 8961)?
A: > 64 µg/mL

Q: What about the MIC (E. faecalis; E. faecalis MMX 8962) of the same compound?
A: > 64 µg/mL

Q: What about the MIC (S. pyogenes; S. pyogenes MMX 3068, Ery^R) of the same compound?
A: > 8 µg/mL

Q: And the MIC (S. pyogenes; S. pyogenes MMX 3820, ERY^R CLI^R)?
A: > 8 µg/mL

Q: And the MIC (S. pyogenes; S. pyogenes MMX 3919, ERY^R)?
A: > 8 µg/mL

Q: And the MIC (S. pyogenes; S. pyogenes MMX 3929, ERY^R CC^R)?
A: > 8 µg/mL

Q: And the MIC (S. pyogenes; S. pyogenes MMX 5091, ERY^R CC^R)?
A: > 8 µg/mL

Q: What about the MIC (S. agalactiae; [4]) of the same compound?
A: 8 µg/mL (≈ 10.9 µM)

Q: And the MIC (S. agalactiae; [5])?
A: > 8 µg/mL

Q: What about the MIC (S. agalactiae; [6]) of the same compound?
A: > 8 µg/mL

Q: What about the MIC (S. agalactiae; [7]) of the same compound?
A: > 8 µg/mL

Q: And the MIC (S. agalactiae; [8])?
A: > 8 µg/mL

Q: What about the MIC [1, 9] of the same compound?
A: 0.5 µg/mL (≈ 0.681 µM)

Q: What about the MIC [1, 10] of the same compound?
A: > 64 µg/mL

Q: What about the MIC [1, 3] of the same compound?
A: > 64 µg/mL

Q: And the MIC [1, 11]?
A: > 64 µg/mL

Q: And the MIC [1, 12]?
A: > 64 µg/mL

Q: And the MIC [1, 13]?
A: > 64 µg/mL

Q: What about the MIC (S. pneumoniae; [14]) of the same compound?
A: 0.03 µg/mL (≈ 0.0409 µM)

Q: And the MIC (S. pneumoniae; [15])?
A: > 8 µg/mL

Q: And the MIC (S. pneumoniae; [16])?
A: > 8 µg/mL

Q: And the MIC (S. pneumoniae; [17])?
A: > 8 µg/mL

Q: What about the MIC (S. pneumoniae; [18]) of the same compound?
A: > 8 µg/mL

Q: And the MIC (S. pneumoniae; [19])?
A: > 8 µg/mL

Q: What about the MIC (S. pneumoniae; [20]) of the same compound?
A: > 8 µg/mL

Q: With CN[C@H](CC(C)C)C(=O)N[C@H]1C(=O)N[C@@H](CC(N)=O)C(=O)N[C@H]2C(=O)N[C@H]3C(=O)N[C@H](C(=O)N[C@H](C(=O)O)c4cc(O)cc(O)c4-c4cc3ccc4O)[C@H](O)c3ccc(c(Cl)c3)Oc3cc2cc(c3O[C@@H]2O[C@H](CO)[C@@H](O)[C@H](O)[C@H]2O[C@H]2C[C@](C)(N)[C@H](O)[C@H](C)O2)Oc2ccc(cc2Cl)[C@H]1O [vancomycin] as the compound, how does the MIC (S. pyogenes) read?
A: 0.5 µg/mL (≈ 0.345 µM)

Q: What about the MIC (S. agalactiae; [4]) of the same compound?
A: 0.5 µg/mL (≈ 0.345 µM)

Q: What about the MIC (S. agalactiae; [5]) of the same compound?
A: 0.5 µg/mL (≈ 0.345 µM)

Q: What about the MIC (S. agalactiae; [6]) of the same compound?
A: 0.5 µg/mL (≈ 0.345 µM)

Q: And the MIC (S. agalactiae; [7])?
A: 2 µg/mL (≈ 1.38 µM)

Q: And the MIC (S. agalactiae; [8])?
A: 1 µg/mL (≈ 0.69 µM)

Q: What about the MIC [1, 9] of the same compound?
A: 1 µg/mL (≈ 0.69 µM)

Q: What about the MIC [1, 10] of the same compound?
A: 2 µg/mL (≈ 1.38 µM)

Q: What about the MIC [1, 3] of the same compound?
A: 0.25 µg/mL (≈ 0.173 µM)

Q: What about the MIC [1, 11] of the same compound?
A: 2 µg/mL (≈ 1.38 µM)

Q: What about the MIC [1, 12] of the same compound?
A: 1 µg/mL (≈ 0.69 µM)

Q: What about the MIC [1, 13] of the same compound?
A: 2 µg/mL (≈ 1.38 µM)

Q: And the MIC (S. pneumoniae; [14])?
A: 0.25 µg/mL (≈ 0.173 µM)

Q: What about the MIC (S. pneumoniae; [15]) of the same compound?
A: 0.5 µg/mL (≈ 0.345 µM)

Q: And the MIC (S. pneumoniae; [16])?
A: 0.5 µg/mL (≈ 0.345 µM)

Q: What about the MIC (S. pneumoniae; [17]) of the same compound?
A: 0.5 µg/mL (≈ 0.345 µM)

Q: And the MIC (S. pneumoniae; [18])?
A: 0.25 µg/mL (≈ 0.173 µM)

Q: And the MIC (S. pneumoniae; [19])?
A: 0.25 µg/mL (≈ 0.173 µM)

Q: And the MIC (S. pneumoniae; [20])?
A: 0.25 µg/mL (≈ 0.173 µM)

Q: What about the MIC [2] of the same compound?
A: 2 µg/mL (≈ 1.38 µM)

From US11464749B2, “Bismuth-thiol compositions and methods of use” (Microbion Corporation, priority 2018, dated 2022)
